For this experiment, the system named is Plasmodium berghei. The experiment is described as follows: Luciferase/luciferin-expressing antifolate-resistant parasites were used to infect a culture of HepG2 cells that were pre-incubated with compounds. Infected hepatocytes emit light due to the luciferase reaction. Assay results are presented as the percent inhibition of light emission compared to control. […]. The experiment is classed as functional. As to conditions: sporozoite; for IC90: read-out: LUCIFERASE INFECTION ASSAY - IC90.

[1] abbreviates: read-out: LUCIFERASE INFECTION ASSAY - IC50.

Take `N=C(NS(=O)(=O)c1cc(C(F)(F)F)cc(C(F)(F)F)c1)c1ccc(Cl)cc1`: the IC90 (in general, the concentration at which the effect reaches the 90% level) was more than 7.66 µM. For the setting “HEPG2TOX_HILL_SLOPE 0.0636, HEPG2TOX_R_SQUARED 0.0519, read-out: LUCIFERASE INFECTION ASSAY - IC50”, the IC50 (as a rule, the concentration at which inhibition is half-maximal) was more than 7.66 µM.
With `O=C(NC1CC1)c1ccc(CN(C2CC2)S(=O)(=O)/C=C/c2ccccc2)cc1`, the 90% effect concentration (IC90) turned out to be 4.03 µM. In addition, the IC50 (PBLUC_HILL_SLOPE 1.61, PBLUC_R_SQUARED 0.829, read-out: LUCIFERASE INFECTION ASSAY - IC50) is 1.03 µM.
For `COc1ccc(-c2nnc(SCc3csc(-c4ccccc4)n3)n2CCc2ccccc2)cc1`, the IC90 is more than 10 µM. For the same compound, under “FFLUC_HILL_SLOPE 7.96, FFLUC_R_SQUARED 0.134, read-out: LUCIFERASE INFECTION ASSAY - IC50”, the IC50 is more than 10 µM.
Take `Clc1ccc2c(NCc3coc(-c4cccs4)n3)ncnc2c1`: the concentration for an effect of 90% (IC90) turned out to be 6.02 µM. In addition, the IC50 (HEPG2TOX_HILL_SLOPE 0.478, HEPG2TOX_R_SQUARED 0.927, PBLUC_HILL_SLOPE 2.76, PBLUC_R_SQUARED 0.49, read-out: LUCIFERASE INFECTION ASSAY - IC50) was 2.71 µM.
For `COc1cc(Cl)c(C)cc1NC(=O)Cn1c(=O)c(=O)n(Cc2ccccc2)c2ccc(Cl)cc21`, the IC90 was more than 10 µM. For the same compound, the concentration for half-maximal inhibition (IC50) (FFLUC_HILL_SLOPE 92.5, FFLUC_R_SQUARED 0.216, PBLUC_HILL_SLOPE 2.05, PBLUC_R_SQUARED 0.328, read-out: LUCIFERASE INFECTION ASSAY - IC50) was determined as 4.54 µM.
As to `COc1ccc(CCn2nc(C(=O)NC3CC3)c3c2CCN(C(=O)c2cc(C)n[nH]2)C3)cc1`, the IC90 worked out at 4.91 µM. Besides, where the note is “PBLUC_HILL_SLOPE 5.54, PBLUC_R_SQUARED 0.701, read-out: LUCIFERASE INFECTION ASSAY - IC50”, the IC50 was 3.31 µM.
`COc1ccccc1C(=O)c1cnc(Nc2cccc(Oc3ccccc3)c2)[nH]1`: the IC90 was found to be 3.37 µM. In addition, the IC50 (HEPG2TOX_HILL_SLOPE 2.29, HEPG2TOX_R_SQUARED 0.975, PBLUC_HILL_SLOPE 12.2, PBLUC_R_SQUARED 0.607, read-out: LUCIFERASE INFECTION ASSAY - IC50) was 2.81 µM.
In the case of `Cc1cc2oc(=O)cc(Cn3cnc([N+](=O)[O-])c3)c2cc1C`, the IC90 is more than 10 µM. Also, the half-maximal inhibitory concentration (IC50) (PBLUC_HILL_SLOPE 0.353, PBLUC_R_SQUARED 0.0201, read-out: LUCIFERASE INFECTION ASSAY - IC50) is more than 10 µM.
Take `C=CCNC(=O)NC(=O)COC(=O)c1c2c(nc3ccccc13)/C(=C/c1cccs1)CCC2`: the IC90 is more than 10 µM. For the same compound, under “PBLUC_HILL_SLOPE 2.17, PBLUC_R_SQUARED 0.466, read-out: LUCIFERASE INFECTION ASSAY - IC50”, the IC50 came out at 7.2 µM.
In the case of `Cc1cccc(-n2cc(-c3ccccc3)c3c(N4CCN(CCO)CC4)ncnc32)c1`, the IC90 was more than 10 µM. Moreover, under setting [1], the IC50 was more than 10 µM.
For `Cc1c(-c2ccccc2)nc2ccccc2c1C(=O)OCC(=O)c1cc(C)n(Cc2ccco2)c1C`, the IC90 was more than 10 µM. Also, the IC50 under setting [1] was more than 10 µM.
For the compound `O=C(NC1CC1)c1ccc(CN(C2CC2)S(=O)(=O)c2ccccc2F)cc1`, the IC90 stood at 1.51 µM. Also, the IC50 under setting [1] was determined as 1.29 µM.
For `O=C(c1ccc(-c2ccc3c(c2)OCCO3)s1)N1CCc2ccccc21` the same measures were more than 10 µM and more than 10 µM.
With `C=CCN(c1ccccc1)S(=O)(=O)c1cc(C(=O)NCc2ccc3c(c2)OCO3)ccc1Cl`, the IC90 is more than 10 µM. Further, the IC50 under setting [1] is more than 10 µM.
Take `COc1ccc(C)cc1C(C)NC(=O)c1cc2ccsc2[nH]1` (centres undefined): the 90% effect concentration (IC90) was more than 10 µM. Besides, the IC50 under setting [1] is more than 10 µM.
Take `CCn1nnc2cc(C(=O)Nc3cc(C(F)(F)F)ccc3N(C)C)ccc21`: the IC90 came to 7.74 µM. The concentration for half-maximal inhibition (IC50) (PBLUC_HILL_SLOPE 154, PBLUC_R_SQUARED 0.344, read-out: LUCIFERASE INFECTION ASSAY - IC50) was 7.63 µM.
With `CC(C)(C)c1ccc(/C=N/NC(=O)CNc2ccccc2F)cc1`, the IC90 was more than 10 µM. The IC50 under setting [1] was more than 10 µM.
On to `COc1ccc(Cn2c(C)nc3c(cnn3-c3ccc(Cl)cc3)c2=O)cc1`, for which the IC90 is more than 8.67 µM. In addition, the IC50 (HEPG2TOX_HILL_SLOPE 7.21, HEPG2TOX_R_SQUARED 0.304, PBLUC_HILL_SLOPE 6.35, PBLUC_R_SQUARED 0.427, read-out: LUCIFERASE INFECTION ASSAY - IC50) is 7.48 µM.
As to `CC(=O)Nc1cccc(Nc2nccc3[nH]c(-c4cccc(C(F)(F)F)c4)cc23)c1`, the IC90 worked out at 2.28 µM. The IC50 under setting [1] was determined as 0.705 µM.
For `CN(C)c1ccc(-c2nnc3ccccn23)cc1` the same measures were more than 13.8 µM and 6.56 µM.
Consider `COCCOc1ccc(C(F)(F)F)cc1NC(=O)COc1ccc2ccc(=O)oc2c1`, for which the IC90 was more than 10 µM. Also, under setting [1], the IC50 is more than 10 µM.
For `Cn1/c(=N/N=C2\C(=O)N(Cc3ccccc3)c3ccccc32)sc2ccccc21`, the IC90 was more than 10 µM. The IC50 under setting [1] was more than 10 µM.
For `O=C(Nc1ccc(N2CCOCC2)cc1)c1ccccc1Nc1ccc(F)cc1`, the IC90 is more than 10 µM. The IC50 under setting [1] was more than 10 µM.
Regarding `CC(C)CN(C(=O)CN(C)C(=O)c1ccco1)c1c(N)n(CC(C)C)c(=O)[nH]c1=O`, the IC90 was more than 10 µM. In addition, the IC50 under setting [1] is more than 10 µM.
Turning to `OC(c1cc(F)c(F)c(F)c1)c1nnc(Nc2cccc(Cl)c2)s1` (centres undefined), the IC90 was more than 10 µM. For the same compound, under setting [1], the IC50 is more than 10 µM.
With `O=c1c2c3c(sc2nc(SCc2cc(=O)n4ccsc4n2)n1-c1ccccc1C(F)(F)F)CCCCC3`, the IC90 is more than 10 µM. For the same compound, the IC50 (FFLUC_HILL_SLOPE 12.2, FFLUC_R_SQUARED 0.743, read-out: LUCIFERASE INFECTION ASSAY - IC50) was more than 10 µM.
`CSc1nnc(-c2csc(S(=O)(=O)Nc3ccccc3Cl)c2)n1C`: the IC90 is more than 8.23 µM. Further, the IC50 under setting [1] is more than 8.23 µM.
For `Cn1c(NCc2ccccc2)nc2cnc(Nc3ccc(F)cc3)cc21`, the IC90 was more than 10 µM. Under setting [1], the IC50 is more than 10 µM.
On to `CC1CC1C(=O)Nc1cccc(S(=O)(=O)N(C)c2ccccc2)c1` (centres undefined), for which the IC90 was more than 10 µM. Besides, under setting [1], the IC50 was more than 10 µM.
`CCCCNC(=O)c1c(NC(=O)c2cccc(OC)c2)nc2ccc(C)cn12`: the IC90 came to 3.2 µM. Besides, the IC50 under setting [1] came to 2.79 µM.
With `O=c1[nH]nc(Sc2ncc([N+](=O)[O-])s2)n1-c1ccccc1C(F)(F)F`, the IC90 is more than 8.48 µM. The IC50 (FFLUC_HILL_SLOPE 106, FFLUC_R_SQUARED 0.375, read-out: LUCIFERASE INFECTION ASSAY - IC50) was more than 8.48 µM.
For the compound `O=C(Nc1ccc(-n2nc(C(F)(F)F)cc2C(F)(F)F)cc1)Nc1cc(Cl)cc(Cl)c1`, the IC90 was 2.08 µM. Besides, under setting [1], the IC50 came out at 1.83 µM.
Consider `Cc1ccc(NC(=O)Cn2nnc(-c3ccccc3)n2)cc1S(=O)(=O)N1CCCCCC1`, for which the IC90 was more than 10 µM. For the same compound, the IC50 (HEPG2TOX_HILL_SLOPE 11.8, HEPG2TOX_R_SQUARED 0.86, PBLUC_HILL_SLOPE 22, PBLUC_R_SQUARED 0.334, read-out: LUCIFERASE INFECTION ASSAY - IC50) is 9.07 µM.
With `CN(C)c1ccc(C(=O)/C=C/c2ccccc2C(F)(F)F)cc1`, the IC90 came to 3.94 µM. Further, where the note is “HEPG2TOX_HILL_SLOPE 2.82, HEPG2TOX_R_SQUARED 0.851, PBLUC_HILL_SLOPE 15.9, PBLUC_R_SQUARED 0.328, read-out: LUCIFERASE INFECTION ASSAY - IC50”, the IC50 came to 3.43 µM.
Turning to `CN(C)c1cc(-c2cc(Cl)sc2Cl)oc(=O)c1Cl`, the IC90 was more than 10.2 µM. The IC50 under setting [1] was more than 10.2 µM.
Consider `CCCCCc1c(C(=O)OCC)[nH]c(C)c1C`, for which the IC90 was more than 13.9 µM. Moreover, the IC50 (HEPG2TOX_HILL_SLOPE 1.75, HEPG2TOX_R_SQUARED 0.784, PBLUC_HILL_SLOPE 1.37, PBLUC_R_SQUARED 0.743, read-out: LUCIFERASE INFECTION ASSAY - IC50) stood at 5.49 µM.
Take `CCc1ccc(S(=O)(=O)Nc2cc(Sc3ccc(C)cc3)c(O)c3ccccc23)cc1`: the IC90 is more than 10 µM. The IC50 (PBLUC_HILL_SLOPE 1.24, PBLUC_R_SQUARED 0.466, read-out: LUCIFERASE INFECTION ASSAY - IC50) came out at 5.98 µM.
With `CCN(CC)S(=O)(=O)c1ccc(-c2ccc(C3NC(N)=Nc4nc5ccccc5n43)o2)cc1` (centres undefined), the IC90 is more than 10 µM. Moreover, the IC50 under setting [1] is more than 10 µM.
On to `FC(F)(F)Oc1ccc(N=C(S)Nc2ccc(OC(F)(F)F)cc2)cc1`, for which the IC90 is more than 8.33 µM. The IC50 under setting [1] is more than 8.33 µM.
On to `Cc1nc(N2CCCCC2)sc1C(=O)c1ccc(SCc2cc(Cl)cc3c2OCOC3)c([N+](=O)[O-])c1`, for which the IC90 was more than 10 µM. The IC50 under setting [1] is more than 10 µM.
For the compound `CC(Cn1cccn1)NCc1ccc(F)c(F)c1` (centres undefined), the IC90 is more than 10 µM. Also, the IC50 under setting [1] was more than 10 µM.
Turning to `N#C/C(=C\c1ccc(OCc2ccccc2)c(OCc2ccccc2)c1)c1nnc2n1CCCCC2`, the IC90 was more than 10 µM. The IC50 under setting [1] is more than 10 µM.
Consider `CCOC(=O)c1c(NC(=O)COC(=O)c2ccccc2Nc2cccc(C)c2C)sc(C(=O)N(C)C)c1C`, for which the IC90 is more than 10 µM. Under setting [1], the IC50 is more than 10 µM.
On to `CCOCCCn1c(SCC(=O)Nc2scc(C3CC3)c2C(=O)OCC)nnc1-c1ccc(Cl)cc1`, for which the IC90 is more than 10 µM. Besides, the IC50 under setting [1] was more than 10 µM.
Regarding `Fc1cccc(Cl)c1CSc1ccc(Cl)c(Cl)c1`, the 90% effect concentration (IC90) is more than 10.3 µM. In addition, the half-maximal inhibitory concentration (IC50) (FFLUC_HILL_SLOPE 1.69, FFLUC_R_SQUARED 0.519, read-out: LUCIFERASE INFECTION ASSAY - IC50) is more than 10.3 µM.
Consider `Cc1cccc(OCc2nnc(SCC(=O)c3ccc4c(c3)CCC4)o2)c1`, for which the IC90 is more than 10 µM. Under setting [1], the IC50 was more than 10 µM.
Regarding `CCOC(=O)C1=C(C)N(S(=O)(=O)c2ccc(C)cc2)C(SC)=NC1c1ccccc1` (centres undefined), the IC90 was more than 7.42 µM. Besides, the IC50 under setting [1] is more than 7.42 µM.

Values taken from ChEMBL document CHEMBL4483862, “Open-source discovery of chemical leads for next-generation chemoprotective antimalarials” (2018).
